In PMC6754346, “Compounds with capacity to quench the tyrosyl radical in Pseudomonas aeruginosa ribonucleotide reductase” (Journal of Biological Inorganic Chemistry, 2019):

Legend:
NrdB = target: T1, NrdB (Pseudomonas aeruginosa, UniProt Q9I4I2); assay: EPR, tyrosyl radical quenching; type: biochemical; conditions: 133 µM compound, 15 µM Fe-reconstituted NrdB, 50 mM Tris pH 7.5, 1% DMSO, no DTT; corrected for control decay
T1 construct: homodimer concentrations; apoNrdB reconstituted with Fe2+ for EPR
T1 sequence (Q9I4I2 1-415): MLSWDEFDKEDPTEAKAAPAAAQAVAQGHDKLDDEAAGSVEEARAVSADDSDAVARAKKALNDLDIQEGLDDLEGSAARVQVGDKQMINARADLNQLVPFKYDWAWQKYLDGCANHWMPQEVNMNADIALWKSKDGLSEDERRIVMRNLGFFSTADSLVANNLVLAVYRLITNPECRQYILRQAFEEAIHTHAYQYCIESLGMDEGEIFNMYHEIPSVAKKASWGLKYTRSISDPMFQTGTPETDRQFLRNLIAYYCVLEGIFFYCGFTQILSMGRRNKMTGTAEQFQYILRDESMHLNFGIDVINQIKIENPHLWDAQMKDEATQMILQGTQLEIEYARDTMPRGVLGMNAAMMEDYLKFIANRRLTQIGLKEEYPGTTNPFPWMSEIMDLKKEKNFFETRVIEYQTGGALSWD
Excerpt: EPR, tyrosyl radical quenching on NrdB

[1] = target: P. aeruginosa RNR active holoenzyme (NrdA/B complex) (Pseudomonas aeruginosa, UniProt Q9I4I1+Q9I4I2); assay: EPR, tyrosyl radical quenching in holoenzyme; type: biochemical; conditions: 133 µM compound, 12 µM each NrdA and NrdB, 5 mM ATP, 10 mM magnesium acetate, 30 mM DTT, 50 mM Tris pH 7.5; corrected for control decay
Sequence of P. aeruginosa RNR active holoenzyme (NrdA/B complex) (Q9I4I1 1-963): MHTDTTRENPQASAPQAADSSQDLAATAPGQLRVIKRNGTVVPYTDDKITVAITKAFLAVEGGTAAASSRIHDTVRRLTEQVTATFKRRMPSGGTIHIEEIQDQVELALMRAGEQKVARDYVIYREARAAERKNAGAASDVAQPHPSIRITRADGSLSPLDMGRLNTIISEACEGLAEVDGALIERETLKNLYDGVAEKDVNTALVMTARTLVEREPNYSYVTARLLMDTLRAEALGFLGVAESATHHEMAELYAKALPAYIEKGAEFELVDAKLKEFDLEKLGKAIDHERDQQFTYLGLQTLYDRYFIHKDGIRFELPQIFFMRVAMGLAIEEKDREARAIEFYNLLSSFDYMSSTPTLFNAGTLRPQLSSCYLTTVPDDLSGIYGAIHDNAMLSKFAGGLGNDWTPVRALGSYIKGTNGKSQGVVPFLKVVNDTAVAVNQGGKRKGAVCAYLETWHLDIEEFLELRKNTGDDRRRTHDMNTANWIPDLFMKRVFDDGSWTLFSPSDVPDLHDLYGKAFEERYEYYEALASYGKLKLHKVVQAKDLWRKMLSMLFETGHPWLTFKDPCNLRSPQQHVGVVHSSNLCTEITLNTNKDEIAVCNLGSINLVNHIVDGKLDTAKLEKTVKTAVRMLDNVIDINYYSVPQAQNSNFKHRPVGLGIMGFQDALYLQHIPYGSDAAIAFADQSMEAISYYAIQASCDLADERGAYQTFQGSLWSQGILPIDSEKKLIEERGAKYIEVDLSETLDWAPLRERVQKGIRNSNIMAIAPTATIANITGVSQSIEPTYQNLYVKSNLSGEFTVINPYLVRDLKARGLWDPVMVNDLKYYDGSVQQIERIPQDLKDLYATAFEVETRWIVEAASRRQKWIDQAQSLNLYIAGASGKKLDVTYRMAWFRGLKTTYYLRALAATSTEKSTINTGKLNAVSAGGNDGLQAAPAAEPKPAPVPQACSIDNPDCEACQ
Sequence of P. aeruginosa RNR active holoenzyme (NrdA/B complex) (Q9I4I2 1-415): as the sequence (Q9I4I2 1-415) above
Excerpt: EPR, tyrosyl radical quenching in holoenzyme on P. aeruginosa RNR active holoenzyme (NrdA/B complex)

Row | SMILES | Tyrosyl radical decay rate and radical left after 10 min / NrdB only^a (NrdB) | Tyrosyl radical decay rate [1]
1 | CC(=O)c1cc(O)c2ccccc2c1O [compound 111552, NSC111552] | 0.19 ± 0.03 min⁻¹ | 0.43 ± 0.32 min⁻¹
2 | N#Cc1c(C#N)c(O)c2ccccc2c1O [compound 128281, NSC128281] | 0.30 ± 0.07 min⁻¹ | 0.43 ± 0.03 min⁻¹
3 | COc1cc(-c2ccc(Nc3ccccc3C(=O)O)c(OC)c2)ccc1Nc1ccccc1C(=O)O [compound 73735, NSC73735] |  | 0.67 ± 0.01 min⁻¹
4 | CCc1oc2ccccc2c1C(=O)c1cc(Br)c(O)c(Br)c1 [compound 85433, NSC85433] |  | 0.33 ± 0.03 min⁻¹
5 | CCOC(=O)/C=C(/C)Sc1cc(O)c2ccccc2c1O [compound 278631, NSC278631] | 0.40 ± 0.06 min⁻¹ | 
6 | COc1ccc(C2=NC(=O)NC2c2ccc(OC)cc2)cc1 (stereo not drawn) [compound 26692, NSC26692] |  | 0.18 ± 0.19 min⁻¹
7 | O=C(Nc1ccc(Cl)c(Cl)c1)Nc1ccccc1O [compound 522131, NSC522131] | 0.35 ± 0.04 min⁻¹ | 
